# Results from ChEMBL document CHEMBL5442219.
# Legend:
# Details in all cases: Compound concentration 10 µM
# [1] = target: T1, Alpha-2A adrenergic receptor (Homo sapiens) (UniProt P08913)
# T1 sequence (whole entry): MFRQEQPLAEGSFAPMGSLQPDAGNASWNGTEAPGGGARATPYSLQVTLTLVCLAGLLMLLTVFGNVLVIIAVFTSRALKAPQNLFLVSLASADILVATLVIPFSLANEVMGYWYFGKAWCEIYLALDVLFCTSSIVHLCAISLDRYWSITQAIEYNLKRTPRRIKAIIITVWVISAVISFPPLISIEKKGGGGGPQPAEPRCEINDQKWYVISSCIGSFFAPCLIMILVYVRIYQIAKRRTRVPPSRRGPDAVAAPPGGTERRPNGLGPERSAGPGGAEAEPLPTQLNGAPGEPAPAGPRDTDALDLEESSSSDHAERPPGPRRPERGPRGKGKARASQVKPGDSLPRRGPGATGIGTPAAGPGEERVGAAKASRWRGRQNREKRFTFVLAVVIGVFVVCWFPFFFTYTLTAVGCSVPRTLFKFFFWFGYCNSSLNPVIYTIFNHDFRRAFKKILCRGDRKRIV
# [2] = target: T2, Alpha-2C adrenergic receptor (Homo sapiens) (UniProt P18825)
# T2 sequence (whole entry): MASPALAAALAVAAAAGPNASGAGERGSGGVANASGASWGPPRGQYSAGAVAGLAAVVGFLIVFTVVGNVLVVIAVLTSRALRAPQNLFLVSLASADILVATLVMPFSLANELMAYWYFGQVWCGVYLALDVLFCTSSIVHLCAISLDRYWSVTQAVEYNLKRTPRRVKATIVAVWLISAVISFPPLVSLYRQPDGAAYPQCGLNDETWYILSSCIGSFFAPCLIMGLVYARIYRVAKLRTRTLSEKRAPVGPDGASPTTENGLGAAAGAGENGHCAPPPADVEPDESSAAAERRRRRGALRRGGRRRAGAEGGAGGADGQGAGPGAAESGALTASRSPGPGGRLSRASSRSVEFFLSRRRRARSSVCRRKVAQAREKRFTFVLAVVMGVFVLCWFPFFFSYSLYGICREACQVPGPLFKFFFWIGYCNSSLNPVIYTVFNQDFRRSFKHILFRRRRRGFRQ
# [3] = target: Beta-2 adrenergic receptor (Homo sapiens) (UniProt P07550)
# Sequence of Beta-2 adrenergic receptor (Homo sapiens) (P07550 whole entry, looked up): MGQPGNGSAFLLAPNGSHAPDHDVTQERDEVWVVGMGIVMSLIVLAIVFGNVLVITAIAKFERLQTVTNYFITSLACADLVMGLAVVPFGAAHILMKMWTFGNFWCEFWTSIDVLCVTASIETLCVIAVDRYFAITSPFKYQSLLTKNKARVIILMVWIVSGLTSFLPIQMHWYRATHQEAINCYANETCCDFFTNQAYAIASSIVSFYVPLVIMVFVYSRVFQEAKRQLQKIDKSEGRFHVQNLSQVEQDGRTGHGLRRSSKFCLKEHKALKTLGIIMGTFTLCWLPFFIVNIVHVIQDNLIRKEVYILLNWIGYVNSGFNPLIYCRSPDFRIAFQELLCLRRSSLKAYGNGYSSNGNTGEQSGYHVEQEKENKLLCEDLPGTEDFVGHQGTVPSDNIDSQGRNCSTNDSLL
# [4] = target: D(3) dopamine receptor (Homo sapiens) (UniProt P35462)
# [5] = target: Histamine H1 receptor (Homo sapiens) (UniProt P35367)
# Sequence of Histamine H1 receptor (Homo sapiens) (P35367 whole entry): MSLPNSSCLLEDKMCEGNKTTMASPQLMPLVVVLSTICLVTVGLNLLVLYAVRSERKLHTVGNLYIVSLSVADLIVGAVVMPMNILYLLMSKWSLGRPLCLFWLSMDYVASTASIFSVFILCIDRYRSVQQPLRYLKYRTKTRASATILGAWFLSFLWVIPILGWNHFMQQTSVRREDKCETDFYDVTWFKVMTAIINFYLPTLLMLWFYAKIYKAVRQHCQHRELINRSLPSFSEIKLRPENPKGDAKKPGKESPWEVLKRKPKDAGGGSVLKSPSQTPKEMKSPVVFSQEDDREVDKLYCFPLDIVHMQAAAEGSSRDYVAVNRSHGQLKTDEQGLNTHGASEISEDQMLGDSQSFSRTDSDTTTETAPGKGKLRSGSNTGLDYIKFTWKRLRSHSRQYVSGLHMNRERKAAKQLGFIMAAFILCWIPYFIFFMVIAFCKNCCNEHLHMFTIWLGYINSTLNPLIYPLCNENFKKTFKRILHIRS
# [6] = target: 5-hydroxytryptamine receptor 1B (Homo sapiens) (UniProt P28222)
# Sequence of 5-hydroxytryptamine receptor 1B (Homo sapiens) (P28222 whole entry): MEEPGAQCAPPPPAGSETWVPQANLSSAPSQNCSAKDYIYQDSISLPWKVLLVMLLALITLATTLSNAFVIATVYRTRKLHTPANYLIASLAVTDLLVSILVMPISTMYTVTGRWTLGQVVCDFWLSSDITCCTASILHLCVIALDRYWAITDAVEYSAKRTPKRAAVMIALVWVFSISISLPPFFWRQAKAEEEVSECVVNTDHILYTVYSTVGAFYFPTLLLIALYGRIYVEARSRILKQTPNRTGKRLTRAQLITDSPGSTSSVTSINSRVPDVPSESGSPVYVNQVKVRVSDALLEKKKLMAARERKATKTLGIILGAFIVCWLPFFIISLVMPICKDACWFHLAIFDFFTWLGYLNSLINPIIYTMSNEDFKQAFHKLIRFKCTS
# [7] = target: 5-hydroxytryptamine receptor 1D (Homo sapiens) (UniProt P28221)
# Sequence of 5-hydroxytryptamine receptor 1D (Homo sapiens) (P28221 whole entry): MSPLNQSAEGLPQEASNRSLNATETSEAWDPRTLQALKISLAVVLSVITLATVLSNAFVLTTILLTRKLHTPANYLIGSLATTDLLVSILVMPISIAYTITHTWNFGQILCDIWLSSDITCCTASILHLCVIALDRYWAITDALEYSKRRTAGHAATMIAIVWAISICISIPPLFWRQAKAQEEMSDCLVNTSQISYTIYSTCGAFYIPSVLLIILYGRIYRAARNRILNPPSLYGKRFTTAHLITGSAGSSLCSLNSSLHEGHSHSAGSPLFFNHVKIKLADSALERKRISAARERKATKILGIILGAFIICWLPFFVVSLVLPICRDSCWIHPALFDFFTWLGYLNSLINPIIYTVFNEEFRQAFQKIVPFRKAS
# [8] = target: 5-hydroxytryptamine receptor 1E (Homo sapiens) (UniProt P28566)
# [9] = target: 5-hydroxytryptamine receptor 2A (Homo sapiens) (UniProt P28223)
# [10] = target: T3, 5-hydroxytryptamine receptor 2C (Homo sapiens) (UniProt P28335)
# T3 sequence (whole entry): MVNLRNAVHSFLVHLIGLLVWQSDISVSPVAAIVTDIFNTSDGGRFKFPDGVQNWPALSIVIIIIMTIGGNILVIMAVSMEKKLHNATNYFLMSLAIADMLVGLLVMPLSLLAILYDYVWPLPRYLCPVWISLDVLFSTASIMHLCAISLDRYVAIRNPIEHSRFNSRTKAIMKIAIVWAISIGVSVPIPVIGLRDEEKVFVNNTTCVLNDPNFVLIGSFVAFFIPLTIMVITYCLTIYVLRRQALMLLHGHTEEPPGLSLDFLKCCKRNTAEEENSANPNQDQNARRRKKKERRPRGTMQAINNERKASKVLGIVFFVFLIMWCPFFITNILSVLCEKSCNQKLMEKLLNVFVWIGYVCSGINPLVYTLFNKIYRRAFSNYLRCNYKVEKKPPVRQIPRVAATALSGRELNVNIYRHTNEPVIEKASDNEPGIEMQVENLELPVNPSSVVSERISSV
# [11] = target: T4, 5-hydroxytryptamine receptor 3A (Homo sapiens) (UniProt P46098)
# T4 sequence (whole entry): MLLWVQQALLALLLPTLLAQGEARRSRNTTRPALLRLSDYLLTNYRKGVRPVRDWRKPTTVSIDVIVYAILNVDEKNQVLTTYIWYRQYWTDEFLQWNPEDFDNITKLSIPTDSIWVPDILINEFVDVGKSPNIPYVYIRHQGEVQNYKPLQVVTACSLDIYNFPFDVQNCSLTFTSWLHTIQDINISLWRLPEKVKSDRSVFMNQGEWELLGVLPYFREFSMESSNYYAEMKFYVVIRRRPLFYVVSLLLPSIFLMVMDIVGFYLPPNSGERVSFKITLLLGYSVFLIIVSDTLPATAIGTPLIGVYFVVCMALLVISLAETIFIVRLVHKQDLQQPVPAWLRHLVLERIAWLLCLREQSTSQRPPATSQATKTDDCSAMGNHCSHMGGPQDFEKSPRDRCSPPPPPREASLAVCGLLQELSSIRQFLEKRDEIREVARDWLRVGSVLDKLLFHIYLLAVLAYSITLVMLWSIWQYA
# [12] = target: 5-hydroxytryptamine receptor 5A (Homo sapiens) (UniProt P47898)
# Sequence of 5-hydroxytryptamine receptor 5A (Homo sapiens) (P47898 whole entry): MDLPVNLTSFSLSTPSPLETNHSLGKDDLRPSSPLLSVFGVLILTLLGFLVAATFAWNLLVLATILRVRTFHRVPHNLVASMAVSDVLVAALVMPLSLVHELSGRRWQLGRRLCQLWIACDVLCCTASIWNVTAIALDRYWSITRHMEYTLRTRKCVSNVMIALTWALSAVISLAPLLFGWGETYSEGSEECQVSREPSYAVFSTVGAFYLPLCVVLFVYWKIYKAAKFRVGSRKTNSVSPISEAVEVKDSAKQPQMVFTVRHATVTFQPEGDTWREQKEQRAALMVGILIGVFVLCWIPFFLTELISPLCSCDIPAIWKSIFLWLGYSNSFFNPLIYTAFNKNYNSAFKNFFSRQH
# [13] = target: 5-hydroxytryptamine receptor 7 (Homo sapiens) (UniProt P34969)
# Sequence of 5-hydroxytryptamine receptor 7 (Homo sapiens) (P34969 whole entry): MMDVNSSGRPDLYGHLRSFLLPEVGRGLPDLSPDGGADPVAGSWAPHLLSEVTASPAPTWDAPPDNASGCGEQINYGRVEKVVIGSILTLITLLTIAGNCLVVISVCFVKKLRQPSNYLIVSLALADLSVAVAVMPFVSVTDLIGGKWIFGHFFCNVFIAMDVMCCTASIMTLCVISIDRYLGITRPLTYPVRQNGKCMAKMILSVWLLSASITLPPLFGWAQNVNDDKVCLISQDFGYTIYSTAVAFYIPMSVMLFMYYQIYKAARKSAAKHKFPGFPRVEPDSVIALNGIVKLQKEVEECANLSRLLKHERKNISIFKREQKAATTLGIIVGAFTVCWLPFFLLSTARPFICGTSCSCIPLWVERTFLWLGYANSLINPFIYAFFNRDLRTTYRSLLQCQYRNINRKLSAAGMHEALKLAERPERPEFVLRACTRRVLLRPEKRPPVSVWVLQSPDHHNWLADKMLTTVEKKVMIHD
# [14] = target: Kappa-type opioid receptor (Homo sapiens) (UniProt P41145)
# Sequence of Kappa-type opioid receptor (Homo sapiens) (P41145 whole entry): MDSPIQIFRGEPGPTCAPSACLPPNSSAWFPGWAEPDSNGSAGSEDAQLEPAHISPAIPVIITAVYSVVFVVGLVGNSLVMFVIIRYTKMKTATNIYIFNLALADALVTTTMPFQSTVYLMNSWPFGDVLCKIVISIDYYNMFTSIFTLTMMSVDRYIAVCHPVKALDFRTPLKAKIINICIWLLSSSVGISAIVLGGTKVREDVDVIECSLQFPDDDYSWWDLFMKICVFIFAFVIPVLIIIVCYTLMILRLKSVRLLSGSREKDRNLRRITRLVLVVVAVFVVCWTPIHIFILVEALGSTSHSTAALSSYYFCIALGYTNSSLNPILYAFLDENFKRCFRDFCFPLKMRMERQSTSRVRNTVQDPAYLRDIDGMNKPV
# [15] = target: Sodium-dependent noradrenaline transporter (Homo sapiens) (UniProt P23975)
# Sequence of Sodium-dependent noradrenaline transporter (Homo sapiens) (P23975 whole entry): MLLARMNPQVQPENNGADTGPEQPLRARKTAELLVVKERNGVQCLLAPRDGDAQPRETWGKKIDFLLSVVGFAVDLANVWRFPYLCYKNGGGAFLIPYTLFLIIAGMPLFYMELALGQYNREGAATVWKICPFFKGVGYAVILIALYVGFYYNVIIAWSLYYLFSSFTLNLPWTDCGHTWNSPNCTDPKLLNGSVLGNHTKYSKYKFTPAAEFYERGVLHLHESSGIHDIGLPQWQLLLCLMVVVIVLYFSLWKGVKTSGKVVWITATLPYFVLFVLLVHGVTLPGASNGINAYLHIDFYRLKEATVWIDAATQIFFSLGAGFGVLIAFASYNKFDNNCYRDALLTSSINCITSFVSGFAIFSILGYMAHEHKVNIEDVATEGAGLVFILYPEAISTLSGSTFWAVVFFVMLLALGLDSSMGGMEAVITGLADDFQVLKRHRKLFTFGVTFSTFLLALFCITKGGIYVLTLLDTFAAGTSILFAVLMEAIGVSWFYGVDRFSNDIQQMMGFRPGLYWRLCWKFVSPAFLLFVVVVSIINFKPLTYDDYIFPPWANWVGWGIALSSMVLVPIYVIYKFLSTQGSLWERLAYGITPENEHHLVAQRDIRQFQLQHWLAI
# [16] = target: Translocator protein (Homo sapiens) (UniProt P30536)
# Sequence of Translocator protein (Homo sapiens) (P30536 whole entry): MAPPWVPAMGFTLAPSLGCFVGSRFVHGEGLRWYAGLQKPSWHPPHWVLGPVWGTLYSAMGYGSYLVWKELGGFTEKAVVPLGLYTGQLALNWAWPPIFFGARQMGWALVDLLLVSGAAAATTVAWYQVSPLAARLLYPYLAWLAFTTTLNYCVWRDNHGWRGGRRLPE
# [17] = target: Beta-3 adrenergic receptor (Homo sapiens) (UniProt P13945)
# [18] = target: Histamine H2 receptor (Homo sapiens) (UniProt P25021)
# Sequence of Histamine H2 receptor (Homo sapiens) (P25021 whole entry): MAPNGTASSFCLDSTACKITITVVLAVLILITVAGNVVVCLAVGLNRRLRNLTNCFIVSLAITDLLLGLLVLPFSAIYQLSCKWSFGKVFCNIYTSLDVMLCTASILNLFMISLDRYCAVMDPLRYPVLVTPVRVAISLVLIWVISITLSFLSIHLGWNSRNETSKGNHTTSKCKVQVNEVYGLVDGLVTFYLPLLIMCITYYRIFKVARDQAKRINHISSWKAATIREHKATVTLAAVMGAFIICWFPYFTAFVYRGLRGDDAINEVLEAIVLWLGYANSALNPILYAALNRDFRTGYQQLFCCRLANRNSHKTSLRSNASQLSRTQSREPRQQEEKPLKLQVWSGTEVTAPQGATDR
# [19] = target: Histamine H4 receptor (Homo sapiens) (UniProt Q9H3N8)
# [20] = target: Sodium-dependent dopamine transporter (Homo sapiens) (UniProt Q01959)
# Sequence of Sodium-dependent dopamine transporter (Homo sapiens) (Q01959 whole entry): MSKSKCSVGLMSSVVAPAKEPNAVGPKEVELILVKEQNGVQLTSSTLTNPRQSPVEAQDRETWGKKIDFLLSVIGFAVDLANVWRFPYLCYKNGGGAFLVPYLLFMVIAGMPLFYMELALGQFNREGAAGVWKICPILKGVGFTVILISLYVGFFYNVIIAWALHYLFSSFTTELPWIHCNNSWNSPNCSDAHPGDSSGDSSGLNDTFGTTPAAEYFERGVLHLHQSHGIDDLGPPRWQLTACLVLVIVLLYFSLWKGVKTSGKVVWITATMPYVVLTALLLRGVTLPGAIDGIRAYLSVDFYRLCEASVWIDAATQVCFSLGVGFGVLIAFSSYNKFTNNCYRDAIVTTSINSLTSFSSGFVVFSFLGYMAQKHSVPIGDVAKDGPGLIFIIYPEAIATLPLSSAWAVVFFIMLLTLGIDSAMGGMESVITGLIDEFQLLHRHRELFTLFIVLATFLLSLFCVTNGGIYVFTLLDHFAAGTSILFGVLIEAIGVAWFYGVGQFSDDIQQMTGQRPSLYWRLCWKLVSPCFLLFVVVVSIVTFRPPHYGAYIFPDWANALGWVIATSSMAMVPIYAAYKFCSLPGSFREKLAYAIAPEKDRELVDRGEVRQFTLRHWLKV
SMILES,inhibition [1] [%],inhibition [2] [%],inhibition [3] [%],inhibition [4] [%],inhibition [5] [%],inhibition [6] [%],inhibition [7] [%],inhibition [8] [%],inhibition [9] [%],inhibition [10] [%],inhibition [11] [%],inhibition [12] [%],inhibition [13] [%],inhibition [14] [%],inhibition [15] [%],inhibition [16] [%],inhibition [17] [%],inhibition [18] [%],inhibition [19] [%],inhibition [20] [%]
Cc1ccc2c(c1)c1c(n2CCc2ccc(C)nc2)CCN(C)C1,69.7,73.6,-9.1,72.3,95.1,74.3,70.8,56.9,84.6,81.4,21.6,94.8,90.7,20,-7.44,11.9,0.23,96.5,,
Cc1nc(C#Cc2ccnc(Cl)c2)c(C)n1-c1ccc(OC(F)(F)F)cc1,23.9,-5.37,,13.1,-4.73,11.3,48.9,20.5,16.1,1.86,-5.17,30,7.42,5.17,1.45,64.3,63,10.4,-9.98,8
CN1CCCC(n2nc(Cc3ccc(Cl)cc3)c3ccccc3c2=O)CC1 (stereo unspecified),62.3,64.5,-8.69,83.9,,66.5,57.9,57.6,96.7,93.7,96.4,80.8,80.4,,31.6,12.9,61.5,22.8,1.53,25.9
CS(=O)(=O)NC[C@H]1CC[C@H](Nc2nc3c(s2)CCSc2ccccc2-3)CC1,0.86,37.1,94.4,67.2,18.7,,50.8,6.22,23.7,0.89,0.88,64.7,39.7,-0.03,7.48,35.9,45.4,-2.3,-4.86,3.98
Cc1cc(C)cc(-c2cnc3cc(Cl)c(-c4cccc(O)c4)cc3c2OCCCN)c1,64.9,68,92.8,95.9,98.8,88.2,91.8,54.4,63.2,79.8,43.9,96.4,54.9,60.7,59.5,79.5,99.4,81.6,68.2,
Clc1ccc(CCCOCCCN2CCCCC2)cc1,-7.75,49.4,-7.56,47.4,68.7,12.1,16.4,17.3,28.5,57,28.6,-0.39,63.3,40.4,64.5,-6.49,1.84,33,-7.57,25.6
CNc1nc(NCc2ccc(NS(C)(=O)=O)cc2Cl)cc(-c2ccccn2)n1,43.2,50.4,,56.5,12,3.99,0.67,-3.24,60.3,55.4,-0.08,75.4,77.9,73.2,24,54.8,15,18,0.58,47.6
N#Cc1c[nH]c2c(C(=O)N3CCN(CCc4ccc(F)cc4)CC3)cccc12,-0.21,38.2,60.9,10.4,46.1,-5.18,61.7,27.3,100,58.7,-8.41,12.6,50.6,7.51,71.6,,22.4,4.27,-2.67,36.2
Cc1c(P(=S)(c2ccccc2)c2ccccc2)n2ccccc2[n+]1C/C=C/c1ccccc1,58.1,101,65.4,48.5,67.1,45.4,40.5,1.99,55.7,25.7,20.9,42.1,34.3,101,83.2,6.66,68.2,76.4,31,83.2
